Measured values from US7829665B2 (priority 2005, dated 2010).
Like-named read-outs stand apart in the source and are kept apart here.

Target: T1, full-length NS3/NS4A-2 (HCV NS3 protease) (Hepatitis C virus genotype 1a, UniProt P27958)
T1 construct: Recombinant E. coli or Baculovirus full-length NS3 was diluted to 3.33 μM with assay buffer; made in house; host or cells: E. coli or baculovirus (BV) expression system
Assay: NS3-NS4 protease assay / NS3 inhibition assay (RETS1 substrate, fluorescence kinetic read)
Format: biochemical
In short: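 Full-length NS3 from E. coli (2 nM in assay) or baculovirus (3 nM) was precomplexed with excess NS4A-2 peptide, then preincubated 10 min at room temperature with serially diluted compounds starting at 50 microM. Reaction was started with RETS1 substrate at 8 μM before addition and read kinetically for 30 min (ex 335/em 495 nm). Four-parameter IC50s were converted to Ki by Cheng-Prusoff using Km 2.03 μM (E. coli) or 1.74 μM (BV).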

[1] = recombinant E. coli or Baculovirus full-length NS3 with NS4A-2, read-out: NS3-NS4 IC50

T1 sequence (P27958 1027-1657): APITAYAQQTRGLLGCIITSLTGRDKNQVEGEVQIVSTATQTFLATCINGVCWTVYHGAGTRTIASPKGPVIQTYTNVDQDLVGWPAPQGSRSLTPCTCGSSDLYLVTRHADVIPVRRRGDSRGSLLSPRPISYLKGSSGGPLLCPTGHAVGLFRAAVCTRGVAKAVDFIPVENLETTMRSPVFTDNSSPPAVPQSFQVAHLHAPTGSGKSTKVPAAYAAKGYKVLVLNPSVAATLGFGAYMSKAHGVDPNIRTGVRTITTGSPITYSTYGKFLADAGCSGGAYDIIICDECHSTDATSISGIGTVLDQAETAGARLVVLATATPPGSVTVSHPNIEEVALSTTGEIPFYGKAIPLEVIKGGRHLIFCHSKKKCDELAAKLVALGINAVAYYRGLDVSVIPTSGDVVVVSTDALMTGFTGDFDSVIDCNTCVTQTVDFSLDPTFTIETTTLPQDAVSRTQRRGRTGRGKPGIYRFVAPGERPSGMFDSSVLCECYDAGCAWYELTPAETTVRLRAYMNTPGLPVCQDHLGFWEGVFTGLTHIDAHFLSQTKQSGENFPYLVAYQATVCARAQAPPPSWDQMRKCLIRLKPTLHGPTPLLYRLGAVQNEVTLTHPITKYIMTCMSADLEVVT

Row | SMILES | IC50 [1] [µM] | also measured
1 | CC(C)(C)OC(=O)N[C@H]1CCCCC/C=C\[C@@H]2C[C@@]2(CO)NC(=O)[C@@H]2C[C@@H](OC(=O)N3Cc4cccc(F)c4C3)CN2C1=O [Compound 153, (2R,6S,13aS,14aR,16aS,Z)-6-(tert-botoxycarbonylamino)-14a-(hydroxymethyl)-5,16-dioxo-1,2,3,5,6,7,8,9,10,11,13a,14,14a,15,16,16a-hexadecahydrocyclopropa[e]pyrrolo[1,2-α][1,4]dizacyclopentadecin-2-yl-4-fluoroisoindoline-2-carboxylate] | > 10 | 
2 | CC(C)(C)OC(=O)N[C@H]1CCCCC/C=C\[C@@H]2C[C@@]2(C(=O)NS(=O)(=O)c2c(Cl)cc(Cl)cc2Cl)NC(=O)[C@@H]2CCCN2C1=O [Compound 2115] | < 0.1 | 
3 | Cc1ccc([S@@+]([O-])NC(=O)[C@@]23C[C@H]2/C=C\CCCCC[C@H](NC(=O)OC(C)(C)C)C(=O)N2CCC[C@H]2C(=O)N3)cc1 [Compound 2403] | < 1 | 
4 | CC(C)(C)OC(=O)N[C@H]1CCCCC/C=C\[C@@H]2C[C@@]2(C(=O)NS(=O)(=O)c2cccc(Cl)c2F)NC(=O)[C@@H]2CCCN2C1=O [Compound 2151] | < 1 | 
5 | CC(C)(C)OC(=O)N[C@H]1CCCCC/C=C\[C@@H]2C[C@@]2(C(=O)NCc2ccncc2)NC(=O)[C@@H]2CCCN2C1=O [Compound 502] | > 10 | 
6 | CC(C)(C)OC(=O)N[C@H]1CCCCC/C=C\[C@@H]2C[C@@]2(C(=O)NS(=O)(=O)NCCc2ccc(Cl)cc2)NC(=O)[C@@H]2CCCN2C1=O [Compound 403] | < 10 | 
7 | COc1ccccc1NS(=O)(=O)NC(=O)[C@@]12C[C@H]1/C=C\CCCCC[C@H](NC(=O)OC(C)(C)C)C(=O)N1CCC[C@H]1C(=O)N2 [Compound 2236] | < 1 | 
8 | CC(C)S(=O)(=O)NC(=O)[C@@]12C[C@H]1/C=C\CCCCC[C@H](NC(=O)OC1CCCC1)C(=O)N1C[C@H](OC(=O)N3CCc4ccccc4C3)C[C@H]1C(=O)N2 [Compound 118] | < 0.1 | 
9 | O=C(N[C@H]1CCCCC/C=C\[C@@H]2C[C@@]2(C(=O)NS(=O)(=O)Nc2ccc(Cl)cc2)NC(=O)[C@@H]2CCCN2C1=O)OC1CCCC1 [Compound 420] | > 10 | 
10 | CC(C)(C)OC(=O)N[C@H]1CCCCC/C=C\[C@@H]2C[C@@]2(C(=O)NS(=O)(=O)CCc2ccccc2)NC(=O)[C@@H]2CCCN2C1=O [Compound 2127] | < 10 | 
11 | CC(C)(C)OC(=O)N[C@H]1CCCCC/C=C\[C@@H]2C[C@@]2(C(=O)NS(=O)(=O)c2cccc(F)c2)NC(=O)[C@@H]2CCCN2C1=O [Compound 2113] | < 10 | 
12 | CC(C)(C)OC(=O)N[C@H]1CCCCC/C=C\[C@@H]2C[C@@]2(C(=O)NS(=O)(=O)N2CCC2)NC(=O)[C@@H]2CCCN2C1=O [Compound 2206] | < 10 | 
13 | CC(C)(C)OC(=O)NC1CCCCCCCC=CC2CC2(C(=O)NS(=O)(=O)c2ccccc2)NC(=O)C2CCCN2C1=O (stereo not drawn) [Compound 2101] | < 10 | 
14 | C=CCNS(=O)(=O)NC(=O)[C@@]12C[C@H]1/C=C\CCCCC[C@H](NC(=O)OC(C)(C)C)C(=O)N1CCC[C@H]1C(=O)N2 [Compound 2238] | < 1 | 
15 | CC(C)(C)OC(=O)N[C@H]1CCCCC/C=C\[C@@H]2C[C@@]2(C(=O)NS(=O)(=O)c2cccs2)NC(=O)[C@@H]2CCCN2C1=O [Compound 2136] | < 10 | 
16 | CC(C)(C)OC(=O)N[C@H]1CCC(O)CC/C=C\[C@@H]2C[C@@]2(C(=O)NS(=O)(=O)C2CC2)NC(=O)[C@@H]2C[C@@H](OC(=O)N3Cc4cccc(F)c4C3)CN2C1=O (stereo partly drawn) [Compound 1018] |  | IC50: < 0.1 µM
17 | C=CCC1(S(=O)(=O)NC(=O)[C@@]23C[C@H]2/C=C\CCCCC[C@H](NC(=O)OC(C)(C)C)C(=O)N2CCC[C@H]2C(=O)N3)CC1 [Compound 305] | < 10 | 
18 | CC(C)(C)OC(=O)N[C@H]1CCCCC/C=C\[C@@H]2C[C@@]2(C(=O)NS(=O)(=O)Nc2cccc(Cl)c2)NC(=O)[C@@H]2CCCN2C1=O [Compound 2239] | < 1 | 
19 | CC(C)(C)OC(=O)NC1CCCCCCCC=CC2CC2(C(=O)NS(=O)(=O)c2ccc([N+](=O)[O-])cc2)NC(=O)C2CCCN2C1=O (stereo not drawn) [Compound 2102] | < 10 | 
20 | COc1ccc(CCNS(=O)(=O)NC(=O)[C@@]23C[C@H]2/C=C\CCCCC[C@H](NC(=O)OC(C)(C)C)C(=O)N2CCC[C@H]2C(=O)N3)cc1 [Compound 413] | > 10 | 
21 | CC(C)(C)OC(=O)N[C@H]1CCCCC/C=C\[C@@H]2C[C@@]2(C(=O)NCC#N)NC(=O)[C@@H]2CCCN2C1=O [Compound 2322] |  | IC50 (Table 22, read-out: NS3-NS4 IC50): < 0.1 µM
22 | COc1cccc(CCNS(=O)(=O)NC(=O)[C@@]23C[C@H]2/C=C\CCCCC[C@H](NC(=O)OC(C)(C)C)C(=O)N2CCC[C@H]2C(=O)N3)c1 [Compound 414] | > 10 | 
23 | CC[C@@H]1C[C@H]2C(=O)N[C@]3(C(=O)NS(=O)(=O)C4CC4)C[C@H]3/C=C\CCCCC[C@H](NC(=O)OC(C)(C)C)C(=O)N2C1 [Compound 2145] | > 10 | 
24 | COc1cccc(NS(=O)(=O)NC(=O)[C@@]23C[C@H]2/C=C\CCCCC[C@H](NC(=O)OC(C)(C)C)C(=O)N2CCC[C@H]2C(=O)N3)c1 [Compound 2240] | < 1 | 
